How the values were obtained:
Type in all cases: in vivo, human
[1] = system: adult subjects with schizophrenia; assay: PANSS positive symptom subscale score, Clinical Study Three; conditions: LOCF, ITT; for PANSS Positive Symptom Subscale Score, Trt Effect (bifeprunox—placebo): ANCOVA
Description: (§1) SECONDARY OBJECTIVES To assess the efficacy of bifeprunox in treating schizophrenia using the Positive Symptom sub-scale score of the PANSS, the Negative Symptom sub-scale score of the PANSS, the General Psychopathology sub-scale of the PANSS, Brief Psychiatric Rating Scale (BPRS) total score derived from the PANSS, BPRS psychosis score derived from the PANSS, the Clinical Global Impression Severity of Illness score (CGI-S), the Clinical Global Impression Improvement score (CGI-I), CGI-I responder rate, PANSS responder rate based on the PANSS total score, Calgary Depression Scale for Schizophrenia (CDSS), and Subject Satisfaction rating.
(§2) There were four treatment arms in this study, approximately 144 subjects per arm. […] After completing the Single-Blind Placebo Lead-in Period of at least three days, bifeprunox-treated subjects were titrated from 0.25 mg up to 20 mg/day or 30 mg/day according to a standardized titration scheme over a seven- or eight-day period, respectively. When the assigned dose was reached, subjects were maintained at that dose for the remainder of the six week treatment period. […] Subjects were hospitalized (if not already inpatients) after eligibility for study entry was verified, starting from the Screening Visit until at least 10 days after Baseline. Subjects could be hospitalized longer than 10 days if considered medically necessary by the Investigator. Rating scale assessments for efficacy and abnormal movement disorders were done weekly except for Week 5. […] Subject satisfaction with study medication was assessed at Week 6.

[2] = system: adult subjects with schizophrenia; assay: PANSS total score, Clinical Study Three (6-week, olanzapine-referenced); conditions: for Change from Baseline in PANSS Total Score, Mean (SD) / Change from Baseline in PANSS Total Score, Median / PANSS Total Score, Trt Effect (difference between bifeprunox and placebo): LOCF, ITT; for PANSS Total Score, Trt Effect (difference between bifeprunox and placebo): ANCOVA
Experimental: There were four treatment arms in this study, approximately 144 subjects per arm. […] After completing the Single-Blind Placebo Lead-in Period of at least three days, bifeprunox-treated subjects were titrated from 0.25 mg up to 20 mg/day or 30 mg/day according to a standardized titration scheme over a seven- or eight-day period, respectively. When the assigned dose was reached, subjects were maintained at that dose for the remainder of the six week treatment period. […] Subjects were hospitalized (if not already inpatients) after eligibility for study entry was verified, starting from the Screening Visit until at least 10 days after Baseline. Subjects could be hospitalized longer than 10 days if considered medically necessary by the Investigator. Rating scale assessments for efficacy and abnormal movement disorders were done weekly except for Week 5. Safety assessments were performed at Screening, during treatment and at the end of the study. Subject satisfaction with study medication was assessed at Week 6. Samples of whole blood were obtained at Weeks 2, 4, and 6 for determination of bifeprunox in plasma.
Test Product, Dose and Mode of Administration: Bifeprunox tablets, total daily dose 20 mg or 30 mg (one 20 mg tablet and one 10 mg tablet) administered orally using a once daily dosing regimen.

[3] = system: adult subjects with schizophrenia; assay: PANSS general psychopathology subscale score, Clinical Study Three; conditions: for Change from Baseline in PASS General Psychopathology Subscale Score, Mean (SD) / Change from Baseline in PASS General Psychopathology Subscale Score, Median / Trt Effect (bifeprunox - placebo), PASS General Psychopathology Subscale Score / mean change (SD) from Baseline to Endpoint in PANSS general psychopathology subscale score: LOCF; for Change from Baseline in PASS General Psychopathology Subscale Score, Mean (SD) / Change from Baseline in PASS General Psychopathology Subscale Score, Median / Trt Effect (bifeprunox - placebo), PASS General Psychopathology Subscale Score: ITT population; for Trt Effect (bifeprunox - placebo), PASS General Psychopathology Subscale Score: ANCOVA; for PANSS general psychopathology subscale score, treatment effect (bifeprunox—placebo): Endpoint LOCF; for mean change (SD) from Baseline to Endpoint in PANSS general psychopathology subscale score: ITT
Description: as §1, §2

[4] = system: adult subjects with schizophrenia; assay: PANSS general psychopathology subscale score, Clinical Study Two; conditions: Bifeprunox 30 mg, LOCF, ITT population
Experimental: Rating scale assessments were performed weekly, except for week 5, to measure the change from baseline to endpoint of the PANSS total score. Other assessments included: PANSS positive symptom subscale score, PANSS negative symptom subscale score, PANSS general pschopathology subscale score, BPRS total score, BPRS psychosis score, the CGI-S score, the CGI-I score, responder rates based on the PANSS total score, and the Calgary Depression Scale for Schizophrenia (CDSS). […]
Subjects who completed this study had the option to continue in the long-term. […] Risperidone-treated subjects were titrated from 2 mg to 6 mg daily over a three-day period and were subsequently maintained at 6 mg/day for the remainder of the treatment period. […] Blood samples were also obtained at Screening/Baseline, Week 3, and Week 6 for clinical laboratory assessments.

[5] = Bifeprunox 20 mg, Week 6/Endpoint
[6] = Bifeprunox 30 mg, Week 6/Endpoint

O=c1[nH]c2cccc(N3CCN(Cc4cccc(-c5ccccc5)c4)CC3)c2o1 [Bifeprunox, 7-[4-([1,1′-biphenyl]-3-ylmethyl)-1-piperazinyl]-2(3H)-benzoxazolone]
Change from Baseline in PANSS Positive Symptom Subscale Score, Mean (SD) ([1]; Bifeprunox 20 mg, Week 1): −1.6 (3.7) | Change from Baseline in PANSS Positive Symptom Subscale Score, Median ([1]; Bifeprunox 20 mg, Week 1): −2 | Change from Baseline in PANSS Positive Symptom Subscale Score, Mean (SD) ([1]; Bifeprunox 20 mg, Week 2): −3.0 (4.7) | Change from Baseline in PANSS Positive Symptom Subscale Score, Median ([1]; Bifeprunox 20 mg, Week 2): −3 | Change from Baseline in PANSS Positive Symptom Subscale Score, Mean (SD) ([1]; Bifeprunox 20 mg, Week 3): −3.8 (5.2) | Change from Baseline in PANSS Positive Symptom Subscale Score, Median ([1]; Bifeprunox 20 mg, Week 3): −3 | Change from Baseline in PANSS Positive Symptom Subscale Score, Mean (SD) ([1]; Bifeprunox 20 mg, Week 4): −4.2 (5.7) | Change from Baseline in PANSS Positive Symptom Subscale Score, Median ([1]; Bifeprunox 20 mg, Week 4): −4 | Change from Baseline in PANSS Positive Symptom Subscale Score, Mean (SD) [1, 5]: −4.3 (6.1) | Change from Baseline in PANSS Positive Symptom Subscale Score, Median [1, 5]: −4 | PANSS Positive Symptom Subscale Score, Trt Effect (bifeprunox—placebo) [1, 5]: −1.1 | Change from Baseline in PANSS Positive Symptom Subscale Score, Mean (SD) ([1]; Bifeprunox 30 mg, Week 1): −2.0 (3.8) | Change from Baseline in PANSS Positive Symptom Subscale Score, Median ([1]; Bifeprunox 30 mg, Week 1): −2 | Change from Baseline in PANSS Positive Symptom Subscale Score, Mean (SD) ([1]; Bifeprunox 30 mg, Week 2): −2.8 (5.1) | Change from Baseline in PANSS Positive Symptom Subscale Score, Median ([1]; Bifeprunox 30 mg, Week 2): −3 | Change from Baseline in PANSS Positive Symptom Subscale Score, Mean (SD) ([1]; Bifeprunox 30 mg, Week 3): −3.6 (6.0) | Change from Baseline in PANSS Positive Symptom Subscale Score, Median ([1]; Bifeprunox 30 mg, Week 3): −4 | Change from Baseline in PANSS Positive Symptom Subscale Score, Mean (SD) ([1]; Bifeprunox 30 mg, Week 4): −4.0 (6.3) | Change from Baseline in PANSS Positive Symptom Subscale Score, Median ([1]; Bifeprunox 30 mg, Week 4): −4 | Change from Baseline in PANSS Positive Symptom Subscale Score, Mean (SD) [1, 6]: −4.2 (6.8) | Change from Baseline in PANSS Positive Symptom Subscale Score, Median [1, 6]: −5 | PANSS Positive Symptom Subscale Score, Trt Effect (bifeprunox—placebo) [1, 6]: −0.7 | Change from Baseline in PANSS Total Score, Mean (SD) ([2]; Bifeprunox 20 mg, Week 1): −5.6 (11.7) | Change from Baseline in PANSS Total Score, Median ([2]; Bifeprunox 20 mg, Week 1): −5 | Change from Baseline in PANSS Total Score, Mean (SD) ([2]; Bifeprunox 20 mg, Week 2): −10.2 (14.8) | Change from Baseline in PANSS Total Score, Median ([2]; Bifeprunox 20 mg, Week 2): −10 | Change from Baseline in PANSS Total Score, Mean (SD) ([2]; Bifeprunox 20 mg, Week 3): −12.6 (16.9) | Change from Baseline in PANSS Total Score, Median ([2]; Bifeprunox 20 mg, Week 3): −13 | Change from Baseline in PANSS Total Score, Mean (SD) ([2]; Bifeprunox 20 mg, Week 4): −13.3 (18.7) | Change from Baseline in PANSS Total Score, Median ([2]; Bifeprunox 20 mg, Week 4): −13 | Change from Baseline in PANSS Total Score, Mean (SD) [2, 5]: −13.8 (19.9) | Change from Baseline in PANSS Total Score, Median [2, 5]: −14 | PANSS Total Score, Trt Effect (difference between bifeprunox and placebo) [2, 5]: −3.5 | Change from Baseline in PANSS Total Score, Median ([2]; Bifeprunox 30 mg, Week 1): −6 | Change from Baseline in PANSS Total Score, Mean (SD) ([2]; Bifeprunox 30 mg, Week 2): −8.5 (15.6) | Change from Baseline in PANSS Total Score, Median ([2]; Bifeprunox 30 mg, Week 2): −9 | Change from Baseline in PANSS Total Score, Mean (SD) ([2]; Bifeprunox 30 mg, Week 3): −11.1 (18.0) | Change from Baseline in PANSS Total Score, Median ([2]; Bifeprunox 30 mg, Week 3): −11 | Change from Baseline in PANSS Total Score, Mean (SD) ([2]; Bifeprunox 30 mg, Week 4): −12.0 (18.6) | Change from Baseline in PANSS Total Score, Median ([2]; Bifeprunox 30 mg, Week 4): −13 | Change from Baseline in PANSS Total Score, Mean (SD) [2, 6]: −13.1 (20.2) | Change from Baseline in PANSS Total Score, Median [2, 6]: −13 | PANSS Total Score, Trt Effect (difference between bifeprunox and placebo) [2, 6]: −2.2 | efficacy compared to placebo, primary and key secondary efficacy parameters ([2]; bifeprunox 20 mg and 30 mg, Endpoint): did not demonstrate efficacy as compared to the placebo group | Change from Baseline in PASS General Psychopathology Subscale Score, Mean (SD) ([3]; Bifeprunox 20 mg, Week 1): −2.4 (6.7) | Change from Baseline in PASS General Psychopathology Subscale Score, Median ([3]; Bifeprunox 20 mg, Week 1): −2 | Change from Baseline in PASS General Psychopathology Subscale Score, Mean (SD) ([3]; Bifeprunox 20 mg, Week 2): −4.6 (8.4) | Change from Baseline in PASS General Psychopathology Subscale Score, Median ([3]; Bifeprunox 20 mg, Week 2): −5 | Change from Baseline in PASS General Psychopathology Subscale Score, Mean (SD) ([3]; Bifeprunox 20 mg, Week 3): −5.6 (9.3) | Change from Baseline in PASS General Psychopathology Subscale Score, Median ([3]; Bifeprunox 20 mg, Week 3): −6 | Change from Baseline in PASS General Psychopathology Subscale Score, Mean (SD) ([3]; Bifeprunox 20 mg, Week 4): −5.8 (10.1) | Change from Baseline in PASS General Psychopathology Subscale Score, Median ([3]; Bifeprunox 20 mg, Week 4): −7 | Change from Baseline in PASS General Psychopathology Subscale Score, Mean (SD) [3, 5]: −6.1 (10.7) | Change from Baseline in PASS General Psychopathology Subscale Score, Median [3, 5]: −7 | Trt Effect (bifeprunox - placebo), PASS General Psychopathology Subscale Score [3, 5]: −1.5 | Change from Baseline in PASS General Psychopathology Subscale Score, Mean (SD) ([3]; Bifeprunox 30 mg, Week 1): −2.8 (6.3) | Change from Baseline in PASS General Psychopathology Subscale Score, Median ([3]; Bifeprunox 30 mg, Week 1): −3 | Change from Baseline in PASS General Psychopathology Subscale Score, Mean (SD) ([3]; Bifeprunox 30 mg, Week 2): −3.8 (8.2) | Change from Baseline in PASS General Psychopathology Subscale Score, Median ([3]; Bifeprunox 30 mg, Week 2): −4 | Change from Baseline in PASS General Psychopathology Subscale Score, Mean (SD) ([3]; Bifeprunox 30 mg, Week 3): −5.0 (9.3) | Change from Baseline in PASS General Psychopathology Subscale Score, Median ([3]; Bifeprunox 30 mg, Week 3): −4 | Change from Baseline in PASS General Psychopathology Subscale Score, Median ([3]; Bifeprunox 30 mg, Week 4): −5 | Change from Baseline in PASS General Psychopathology Subscale Score, Mean (SD) [3, 6]: −5.8 (10.3) | Change from Baseline in PASS General Psychopathology Subscale Score, Median [3, 6]: −6 | Trt Effect (bifeprunox - placebo), PASS General Psychopathology Subscale Score [3, 6]: −0.9 | PANSS general psychopathology subscale score, treatment effect (bifeprunox—placebo) ([3]; bifeprunox 20 mg): −1.5 | mean change (SD) from Baseline to Endpoint in PANSS general psychopathology subscale score ([3]; bifeprunox 20 mg): −6.1 (10.7) | PANSS general psychopathology subscale score, treatment effect (bifeprunox—placebo) ([3]; bifeprunox 30 mg): −0.9 | mean change (SD) from Baseline to Endpoint in PANSS general psychopathology subscale score ([3]; bifeprunox 30 mg): −5.8 (10.3) | Change from Baseline in General Psychopathology Subscale Score, Mean (SD) ([4]; Week 1): −2.7 (6.4) | Change from Baseline in General Psychopathology Subscale Score, Median ([4]; Week 1): −2 | Change from Baseline in General Psychopathology Subscale Score, Mean (SD) ([4]; Week 2): −4.9 (8.1) | Change from Baseline in General Psychopathology Subscale Score, Median ([4]; Week 2): −4

From US20090068290A1, “BIFEPRUNOX DOSES FOR TREATING SCHIZOPHRENIA” (priority 2006, published 2009)
